Test results reported in patent US20240360145A1, “PYRIMIDINE-2,4-DIAMINE DERIVATIVES AS WELL AS PREPARATION METHOD THEREFOR AND USE THEREOF” (LISEN THERAPEUTICS, INC., priority 2022, published 2024).
Counter-ions that a name gives are not always drawn.

Key:
NCI-H1650 cells = test: Cell viability IC50 (MTT), Gefitinib- and Osimertinib-resistant NCI-H1650 cells; details: Homo sapiens, NCI-H1650, 72 h, read-out: cell viability IC50
Experimental: (§1) 1% sodium pyruvate was additionally added when culturing NCI-H1975 cells. All the cells were cultured in a constant temperature incubator containing 5% CO2 at 37° C.
(§2) (1) The cells were cultured to the logarithmic growth phase. […] After centrifugation at room temperature, the supernatant was discarded, and the cell precipitate was resuspended with fresh complete medium. After counting, the cells were placed at room temperature for later use.
(§3) (2) The cells were inoculated into a 96-well plate at a density of 4,000 cells/well with a volume of 100 μl/well. The wells at the outermost circle of the plate were not inoculated with cells, and instead, added with sterile water to reduce evaporation of the culture medium.
(§4) (3) After overnight culture of the cells, the medium was discarded, and a fresh medium containing different concentrations of compounds was added at 200 μl/well. The dilution method of the compound was as follows: first the compound with the highest concentration of 10 μM was prepared, and then the compound was diluted for 3 times in sequence. […] At the same time, a blank control group was set up, in which only an equal volume of culture medium was added without adding cells. Six replicate wells were set up for each group. The cells were placed in the incubator for further culture.
(§5) (4) After 72 hours, 20 μl of MTT solution (5 mg/ml) sterilized by filtration through a 0.22 m filter membrane was added to each well, and the cells were cultured in an incubator at 37° C. for another 4 hours.
(§6) (6) IC50 of the compounds for different cells was calculated based on the light absorption value of each group. Specifically, the absorbance value under treatment with different concentrations of compounds was first subtracted from the absorbance value of the blank well, and then the absorbance value of the 0 μM group was taken as 100% to calculate the cell survival rate after treatment with different concentrations of compounds. That is, survival rate=((ODexperimental well−ODblank control)/(ODnegative control−ODblank control))×100%. IC50 values were calculated based on the survival rate and concentration of the compound.

NCI-H1975 cells = test: Cell viability IC50 (MTT), Gefitinib-resistant NCI-H1975 cells; details: Homo sapiens, NCI-H1975, 72 h, read-out: cell viability IC50
Experimental: as §1, §2, §3, §4, §5, §6

With `CN1CCN(Cc2ccc(Nc3ncc(Cl)c(Nc4ccccc4S(=O)(=O)N(C)C)n3)cn2)CC1` [Compound 2, 2-((5-chloro-2-((6-((4-methylpiperazin-1-yl)methyl)pyridin-3-yl)amino)pyrimidin-4-yl)amino)-N,N-dimethylbenzenesulfonamide] the IC50 (NCI-H1650 cells) was 466 nM and the IC50 (NCI-H1975 cells) was 86.4 nM.
In the case of `CN1CCN(Cc2ccc(Nc3ncc(Cl)c(Nc4ccncc4S(=O)(=O)N(C)C)n3)cc2)CC1` [Compound 6, 4-((5-chloro-2-((4-((4-methylpiperazin-1-yl)methyl)phenyl)amino)pyrimidin-4-yl)amino)-N,N-dimethylpyridine-3-sulfonamide], the IC50 (NCI-H1650 cells) is reported as 250 nM and the IC50 (NCI-H1975 cells) is reported as 47.7 nM.
`CN(C)CCN1Cc2ccc(Nc3ncc(Cl)c(Nc4ccccc4S(=O)(=O)N(C)C)n3)cc2C1` [Compound 3, 2-((5-chloro-2-((2-(2-(dimethylamino)ethyl)isodihydroindol-5-yl)amino)pyrimidin-4-yl)amino)-N,N-dimethylbenzenesulfonamide] gave an IC50 (NCI-H1650 cells) of 37.8 nM and an IC50 (NCI-H1975 cells) of 28.3 nM.
In the case of `C[C@@H]1CN(Cc2ccc(Nc3ncc(Cl)c(Nc4ccccc4S(=O)(=O)N(C)C)n3)cc2)C[C@H](C)N1C` [Compound 10, 2-((5-chloro-2-((4-(((3R,5S)-3,4,5-trimethylpiperazin-1-yl)methyl)phenyl)amino)pyrimidin-4-yl)amino)-N,N-dimethylbenzenesulfonamide], the IC50 (NCI-H1650 cells) is reported as 136 nM and the IC50 (NCI-H1975 cells) is reported as 21.5 nM.
`CN(C)CCN1CCc2cc(Nc3ncc(Cl)c(Nc4ccccc4S(=O)(=O)N(C)C)n3)ccc2C1` [Compound 13, 2-((5-chloro-2-((2-(2-(dimethylamino)ethyl)-1,2,3,4-tetrahydroisoquinolin-6-yl)amino)pyrimidin-4-yl)amino)-N,N-dimethylbenzenesulfonamide formate] was tested, and the IC50 (NCI-H1650 cells) was 67.3 nM and the IC50 (NCI-H1975 cells) was 19.8 nM.
`CNCCN1CCc2cc(Nc3ncc(Cl)c(Nc4ccccc4S(=O)(=O)N(C)C)n3)ccc2C1` [Compound 12, 2-((5-chloro-2-((2-(2-(methylamino)ethyl)-1,2,3,4-tetrahydroisoquinolin-6-yl)amino)pyrimidin-4-yl)amino)-N,N-dimethylbenzenesulfonamide] was tested, and the IC50 (NCI-H1650 cells) was 75.2 nM and the IC50 (NCI-H1975 cells) was 18.6 nM.
`COCCN1CCc2cc(Nc3ncc(Cl)c(Nc4ccccc4S(=O)(=O)N(C)C)n3)ccc2C1` [Compound 11, 2-((5-chloro-2-((2-(2-methoxyethyl)-1,2,3,4-tetrahydroisoquinolin-6-yl)amino)pyrimidin-4-yl)amino)-N,N-dimethylbenzenesulfonamide formate] showed an IC50 (NCI-H1650 cells) of 32.5 nM and an IC50 (NCI-H1975 cells) of 29.1 nM.
`CN(C)C1CCN(Cc2ccc(Nc3ncc(Cl)c(Nc4ccccc4S(=O)(=O)N(C)C)n3)cc2)C1` (stereo not drawn) [Compound 4, 2-((5-chloro-2-((4-((3-(dimethylamino)pyrrolidin-1-yl)methyl)phenyl)amino)pyrimidin-4-yl)amino)-N,N-dimethylbenzenesulfonamide] showed an IC50 (NCI-H1650 cells) of 163 nM and an IC50 (NCI-H1975 cells) of 87.7 nM.
For `CN1C2CCC1CN(Cc1ccc(Nc3ncc(Cl)c(Nc4ccccc4S(=O)(=O)N(C)C)n3)cc1)C2` [Compound 9, 2-((5-chloro-2-((4-((8-methyl-3,8-diazabicyclo[3.2.1]octan-3-yl)methyl)phenyl)amino)pyrimidin-4-yl)amino)-N,N-dimethylbenzenesulfonamide], the IC50 (NCI-H1650 cells) was 170 nM and the IC50 (NCI-H1975 cells) was 25.3 nM.
